Source: patent publication US20100210611A1, “COMBINATION THERAPY” (priority 2007, published 2010)
Values joined by “and” are separate entries in the source; they are usually repeats but may differ in a detail not shown here. Equal entries are not always repeated.

Columns and labels:
Format in all cases: physicochemical
[1] = Dose uniformity, Dosage Unit Sampling Apparatus (DUSA), USP <601>; details: Spinhaler; for Total recovered / amount in Device + Capsule: listed as MOM; for amount in Device + Capsule: nominal 1000 μg MON, 400 μg MOM
Protocol: Dose uniformity was determined using Apparatus B (Dosage Unit Sampling Apparatus—DUSA) at a flow rate of 100 L/min (test described in United States Pharmacopoeia (USP) 27 Chapter <601>). The USP recommends selecting a flow rate that creates a pressure drop of 4 kPa across the inhaler. With the Spinhaler, a 4 kPa pressure drop could not be achieved even at the maximum flow rate of 100 L/min. Based on the recommendations of Byron, et al., a flow rate of 100 L/min was selected since the Spinhaler is a low resistance device. See Michael Hindle and Peter R. Byron, “Dose emissions from marketed dry powder inhalers”, International Journal of Pharmaceutics 116 (1995) 169-177. The test was run for 2.4 seconds in order to pull 4 L of air. After a shot had been delivered, all pieces of the DUSA including the mouthpiece adapter were rinsed with solvent. To determine the amount of drug retained in the inhaler, all pieces of the inhaler were rinsed with solvent including the interior of the capsule. The samples were then assayed using the UV-Vis spectrophotometer.
Shot weight was obtained by measuring the weight loss due to the actuation of the device. The device was tared, a “shot” was wasted in the DUSA and the device was re-weighed to obtain the delivered shot weight. Dose and shot weight were deemed acceptable if they were within 75% to 125% of the theoretical values (USP <601>).
Dose Uniformity (DU) was performed according to USP Chapter <601> by using DUSA Apparatus B with the Spinhaler® device which is analogous to that described in section Dose Uniformity for Example 1. However, the HPLC was used to analyze the content of the drugs as described in the Blend Uniformity in this example.
Dose Uniformity was performed according to USP Chapter <601> by using DUSA Apparatus B with the Spinhaler® device and in a manner analogous to that described in section Dose Uniformity in Example 4, except the HPLC was used to analyze the content of the drugs as described in the Blend Uniformity in this example.

[2] = Aerodynamic particle size distribution, Andersen cascade impaction (ACI); details: Spinhaler; for MMAD: cutoff diameter based on airflow rate of 28.3 L/min; for amount in ACI: including mouthpiece adapter
Excerpt: The Andersen cascade impaction (ACI) (Apparatus 3) was the device used to determine the aerodynamic size distribution. The impaction provided in vitro measurements of the fraction of the aerosol that has the potential to reach the alveolar region of the lung. This value is represented by the portion of particles detected below plate 2. The impaction was operated at the flow rate and test time according to the method described in USP <601>. Because the Spinhaler® is a low resistance device, it is difficult to achieve a pressure drop of 4 kPa, an adjustment of the air flow rate at the intake of the flow control was performed, as discussed above. Each impaction plate was coated with silicone grease (316 Dow Corning) to prevent particles from bouncing off the plates and returning to the air stream. All stages were used since the test flow rate was less than 60 L/min. All pieces of the impaction including the inhaler and capsule were rinsed with solvent, diluted to suitable volumes, sonicated, centrifuged and assayed using the UV-VIS spectrophotometer. The respirable portion was quantified by the in vitro fine particle fraction and fine particle mass. Dose uniformity and cascade impaction tests were carried out at controlled temperature (20-25° C.) and humidity (50% RH). […]
Aerodynamic size distribution was performed according to USP Chapter <601> by using ACI Apparatus 3 with the Spinhaler® device analogous to that described in section Aerodynamic Particle Size Distribution for Example 1. However, the HPLC was used to analyze the content of the drugs as described in the Blend Uniformity in this example.
Aerodynamic size distribution was performed according to USP Chapter <601> by using ACI Apparatus 3 with the Spinhaler® device in a manner analogous to that described in section Aerodynamic Particle Size Distribution in Example 4. The content of the drugs were analyzed as described in the Blend Uniformity in this example.

[3] = Blend uniformity (individual capsule assay); details: HPLC, Mean ± RSD
Protocol: To assess blend uniformity, capsules from each blend were opened and rinsed with methanol. The solution was sonicated for 5 minutes at room temperature, centrifuged at 3000 rpm for 15 minutes then assayed using a UV-VIS spectrophotometer at a wavelength of 346 nm. […]
To assess blend uniformity, the blend was sampled randomly from the glass vial. The drugs were extracted analogous to that described in section Blend Uniformity for Example 1. However, the content of montelukast acid and mometasone furoate were analyzed by High Performance Liquid Chromatography (HPLC) employing a phenyl column with a controlled temperature of 50° C., a mixture of water containing 0.2% trifluoroacetic acid (TFA) and acetonitrile containing 0.2% TFA (53:47) as the mobile phase at a flow rate 2 ml/min and UV-detection at 248 nm.
The blend uniformity was assessed in a manner analogous to that described in the Blend Uniformity section in Example 4, except the content of montelukast acid and ciclesonide were analyzed by High Performance Liquid Chromatography (HPLC) employing a phenyl column with a controlled temperature of 50° C., a mixture of water containing 0.2% trifluoroacetic acid (TFA) and acetonitrile containing 0.2% TFA (40:60) at a flow rate 2 ml/min and UV-detection at 248 nm.

[4] = Particle size of unmilled and jet milled API
[5] = Moisture and light sensitivity
[6] = Example 5 blend, listed as ciclesonide
[7] = Milled API, Microtrac data, after sonication for 60 seconds
[8] = Unmilled API, optical microscopy
[9] = Example 4 blend, flow 61.5 L/min for 3.9 sec
[10] = Example 4 blend, flow 62.3 L/min for 3.9 sec
[11] = Example 4 blend, flow 62.8 L/min for 3.8 sec
[12] = Example 4 blend, listed as mometasone furoate

CC(C)C(=O)OCC(=O)[C@@]12O[C@H](C3CCCCC3)O[C@@H]1C[C@H]1[C@@H]3CCC4=CC(=O)C=C[C@]4(C)[C@H]3[C@@H](O)C[C@@]12C [Ciclesonide, ciclesonide]
DU based on nominal dose, % (Device + Capsule) ([1]; Example 5 blend): 35.2%
DU based on nominal dose, % (printed in Adapter + Filter column) ([1]; Example 5 blend): 61.7%
DU based on total recovered, % (Device + Capsule) ([1]; Example 5 blend): 36.3%
DU based on total recovered, % (printed in Adapter + Filter column) ([1]; Example 5 blend): 63.7%
FPD ([2]; Example 5 blend): 33.6 µg and 31.1 µg and 41.4 µg
FPF ([2]; Example 5 blend): 30.6% and 29.1% and 33.9%
GSD ([2]; Example 5 blend): 1.7 and 1.5
Total recovered ([2]; Example 5 blend): 177 µg and 160 µg and 178 µg
amount in inhaler ([2]; Example 5 blend): 67 µg and 53 µg and 56 µg
MMAD ([2]; Example 5 blend): 3.6 μm and 3.8 μm
MMAD [2, 6]: 3.7 μm
MMAD ([2]; Example 5 blend, mean): 3.7 μm
amount in ACI ([2]; Example 5 blend): 110 µg and 107 µg and 122 µg
amount in ACI ([2]; Example 5 blend, mean): 113 µg
FPF [2, 6]: 31%
FPD ([2]; Example 5 blend, mean): 35.5 µg
FPF ([2]; Example 5 blend, mean): 31.2%
GSD ([2]; Example 5 blend, mean): 1.6
Total recovered ([2]; Example 5 blend, mean): 172 µg
amount in inhaler ([2]; Example 5 blend, mean): 59 µg
Amount Recovered (μg/Capsule) ([3]; Example 5 blend (montelukast acid 4%, ciclesonide 0.64%)): 150.9 µg and 146.7 µg and 157.6 µg
Amount Recovered (μg/Capsule) ([3]; Example 5 blend (montelukast acid 4%, ciclesonide 0.64%), mean of three capsules): 151.1 ± 3.3 µg
Amount Recovered, % ([3]; Example 5 blend): 93.3% and 93.7% and 92.5%
Amount Recovered, % ([3]; Example 5 blend, mean of three capsules): 93.2 ± 0.6%

O=C(NC1CC1)c1cn(-c2cccc(C#Cc3ccc[n+]([O-])c3)c2)c2ncccc2c1=O [Compound X, N-cyclopropyl-1-[3-(1-oxido-3-pyridinylethynyl)phenyl]-1,4-dihydro[1,8]-naphthyridin-4-one-3-carboxamide]
Particle size, 95% ([4]; Milled API, Aerosizer data): 7.832 microns
Particle size, Mean ([4]; Milled API, Aerosizer data): 2.832 microns
Particle size, 95% [4, 7]: 4.577 microns
Particle size, Mean [4, 7]: 2.794 microns
Particle size, 95% [4, 8]: 37 microns
Particle size, Mean [4, 8]: 11 microns
moisture and light sensitivity [5]: moisture sensitive and photosensitive

C[C@@H]1C[C@H]2[C@@H]3CCC4=CC(=O)C=C[C@]4(C)[C@@]3(Cl)[C@@H](O)C[C@]2(C)[C@@]1(OC(=O)c1ccco1)C(=O)CCl [Mometasone Furoate, mometasone furoate]
DU based on nominal dose, % (Device + Capsule) ([1]; Example 4 blend): 44.5%
DU based on nominal dose, % (printed in Adapter + Filter column) ([1]; Example 4 blend): 55.5%
DU based on total recovered, % (Device + Capsule) ([1]; Example 4 blend): 44.5%
DU based on total recovered, % (printed in Adapter + Filter column) ([1]; Example 4 blend): 55.5%
Total recovered [1, 9]: 397.04 µg and 394.77 µg and 399.78 µg
Total recovered [1, 10]: 408.74 µg and 407.23 µg
Total recovered [1, 11]: 394.15 µg and 396.73 µg
amount in Device + Capsule [1, 9]: 179.94 µg and 178.36 µg and 177.83 µg
amount in Device + Capsule [1, 10]: 165.97 µg and 165.37 µg
amount in Device + Capsule [1, 11]: 187.90 µg and 189.44 µg
FPD ([2]; Example 4 blend): 43.5 µg and 53.9 µg and 41.8 µg
FPF ([2]; Example 4 blend): 21.0% and 22.7% and 22.1%
GSD ([2]; Example 4 blend): 1.5
Total recovered ([2]; Example 4 blend): 404 µg and 402 µg and 395 µg
amount in inhaler ([2]; Example 4 blend): 198 µg and 165 µg and 206 µg
MMAD ([2]; Example 4 blend): 3.9 μm and 4.1 μm
MMAD [2, 12]: 4.0 μm
MMAD ([2]; Example 4 blend, mean): 4.0 μm
amount in ACI ([2]; Example 4 blend): 207 µg and 237 µg and 189 µg
amount in ACI ([2]; Example 4 blend, mean): 211 µg
FPF [2, 12]: 22%
FPD ([2]; Example 4 blend, mean): 46.4 µg
FPF ([2]; Example 4 blend, mean): 21.9%
GSD ([2]; Example 4 blend, mean): 1.4
Total recovered ([2]; Example 4 blend, mean): 400 µg
amount in inhaler ([2]; Example 4 blend, mean): 189 µg
Amount Recovered (μg/Capsule) ([3]; Example 4 blend (montelukast acid 4%, mometasone furoate 1.6%)): 386.8 µg and 371.6 µg and 389.5 µg
Amount Recovered (μg/Capsule) ([3]; Example 4 blend (montelukast acid 4%, mometasone furoate 1.6%), mean): 382.6 ± 2.6 µg
Amount Recovered, % ([3]; Example 4 blend): 93.9% and 93.5% and 95.8%
Amount Recovered, % ([3]; Example 4 blend, mean): 94.4 ± 1.4%
